Values of other authors as cited in patent publication US7348294B2, “Adsorbent and method for adsorbing cardiac glycoside” (Kaneka Corporation, priority 2000, dated 2008).

Settings: octanol-water; ligand before immobilization

## CCCCN [n-butylamine]
  log P: 0.97
